This note sets out measurements from US9399649B2, “Compounds for treating spinal muscular atrophy” (PTC Therapeutics Inc., priority 2012, dated 2016).

Series [1] has as its system full length SMN2 minigene mRNA containing SMN2 exon 7. The series is described as follows: SMN2 minigene mRNA splicing RT-qPCR assay in cultured cells. Type of series: cell-based, human. Particulars: Homo sapiens, HEK293-H; HEK293H cells stably transfected with SMN2-A minigene, 24 hours, 7-point concentration curve; concentration giving 1.5-fold full length SMN2 mRNA vs vehicle; read-out: EC1.5x for production of full length SMN2 mRNA. The essentials: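 Read-out is minigene FL mRNA (exon 7 included) relative to vehicle, from efficiency-corrected ΔΔCt with GAPDH normalisation. Primers and probe span exon 7, exon 8 and luciferase, so endogenous SMN is not detected. Stable SMN2-A minigene HEK293H cells, 24 h compound exposure at 37 °C, 7-point curve in duplicate.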

In another series the test system is Smn protein. The series is described as follows: Smn protein assay in cultured cells (SMN HTRF). Type of series: cell-based, human. The note with it: SMA patient fibroblast cells (GM03813), 48 hours; for EC1.5x for Smn protein expression: 7-point concentration curve, concentration producing 1.5 times Smn protein vs DMSO vehicle; for maximum fold (Fold) increase of Smn protein: 7-point concentration data, relative to vehicle control. The procedure, abridged:
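Smn protein measured by HTRF (anti-SMN d2/kryptate) in lysates of SMA patient fibroblasts after 48 h compound treatment, 7-point 3.16-fold dilutions, triplicates. The 665/620 nm ratio is blank-corrected to ΔF, then divided by the vehicle ΔF to give fold increase.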

As for `COc1ccc(-c2cc3ccc(N4CCN[C@@H](C)C4)cc3c(=O)o2)c(OC)c1` [Cpd 50, 3-(2,4-dimethoxyphenyl)-7-[(3S)-3-methylpiperazin-1-yl]-1H-isochromen-1-one], the melting point was 231 °C (dec.). For the same compound, the EC (1.5-fold) in series [1] was no more than 0.1 µM. Besides, in the series on Smn protein, the “EC1.5x for Smn protein expression” value was “** (an EC1.5× between >1 μM, and ≦3 nM is indicated by two stars (**))”; the “maximum fold (Fold) increase of Smn protein” value (“maximum fold (Fold) increase” below) is “*** (a fold increase between >1.35 and ≦1.5 is indicated by three stars (***))”.

In turn, `Cc1cn2cc(-c3cc4ccc(N5C[C@@H](C)N(C)[C@@H](C)C5)cc4c(=O)o3)nc2cn1` [Cpd 131, 3-(6-methylimidazo[1,2-a]pyrazin-2-yl)-7-[(3R,5S)-3,4,5-trimethylpiperazin-1-yl]-1H-isochromen-1-one] yielded a melting point of 279 to 284 °C. Also, the EC (1.5-fold) in series [1] is no more than 0.1 µM. In the series on Smn protein, the “EC1.5x for Smn protein expression” value is on record as “**** (an EC1.5×≦0.3 nM is indicated by four stars (****))” and the “maximum fold (Fold) increase” value was “***** (a fold increase >1.65 is indicated by five stars (*****))”.

In turn, `Cc1nc(Cl)cn2cc(-c3cc4ccc(N5CCN(C)CC5)cc4c(=O)o3)nc12` [Cpd 100, 3-(6-chloro-8-methylimidazo[1,2-a]pyrazin-2-yl)-7-(4-methylpiperazin-1-yl)-1H-isochromen-1-one] yielded a melting point of 291 to 296 °C. Besides, in series [1], the EC (1.5-fold) was no more than 0.1 µM. For the same compound, in the series on Smn protein, the “EC1.5x for Smn protein expression” value is “*** (an EC1.5× between >0.3 nM and ≦1 nM is indicated by three stars (***))”; the “maximum fold (Fold) increase” value is listed as “***** (a fold increase >1.65 is indicated by five stars (*****))”.

For the compound `Cc1cn2cc(-c3cc4ccc(N5CCN(C6COC6)[C@@H](C)C5)cc4c(=O)o3)nc2c(C)n1` [Cpd 139, 3-(6,8-dimethylimidazo[1,2-a]pyrazin-2-yl)-7-[(3S)-3-methyl-4-(oxetan-3-yl)piperazin-1-yl]-1H-isochromen-1-one], the melting point was 251 to 256 °C. The EC (1.5-fold) in series [1] was in the range of 0.3 to 1 µM. Moreover, in the series with Smn protein, the “EC1.5x for Smn protein expression” value is “** (an EC1.5× between >1 μM, and ≦3 nM is indicated by two stars (**))”; the “maximum fold (Fold) increase” value is listed as “***** (a fold increase >1.65 is indicated by five stars (*****))”.

On to `Cc1cn2cc(-c3cc4ccc(C5=CCN(C)CC5)cc4c(=O)o3)nc2c(C)n1` [Cpd 89, 3-(6,8-dimethylimidazo[1,2-a]pyrazin-2-yl)-7-(1-methyl-1,2,3,6-tetrahydropyridin-4-yl)-1H-isochromen-1-one], for which the melting point fell in the range of 240 to 242 °C. Moreover, the EC (1.5-fold) in series [1] was no more than 0.1 µM. For the same compound, in the series on Smn protein, the “EC1.5x for Smn protein expression” value was “**** (an EC1.5×≦0.3 nM is indicated by four stars (****))”; the “maximum fold (Fold) increase” value was “**** (a fold increase between >1.5 and ≦1.65 is indicated by four stars (****))”.

`O=c1oc(-c2ccc3c(c2)OC(F)(F)O3)cc2ccc(N3CCNCC3)cc12` [Cpd 6, 3-(2,2-difluoro-1,3-benzodioxol-5-yl)-7-(piperazin-1-yl)-1H-isochromen-1-one] yielded a melting point of 220 to 222 °C. Further, in series [1], the EC (1.5-fold) was 1 to 3 µM. Besides, the “maximum fold (Fold) increase” value with Smn protein is recorded as “* (A maximum fold increase of ≦1.2 is indicated by one star (*))”.

`Cc1nc(Cl)cn2cc(-c3cc4ccc(N5CCN(C)[C@@H](C)C5)cc4c(=O)o3)nc12` [Cpd 112, 3-(6-chloro-8-methylimidazo[1,2-a]pyrazin-2-yl)-7-[(3S)-3,4-dimethylpiperazin-1-yl]-1H-isochromen-1-one] yielded a melting point of 270 to 275 °C. In addition, the EC (1.5-fold) in series [1] lay within 1 to 3 µM. In the series with Smn protein, the “EC1.5x for Smn protein expression” value was “** (an EC1.5× between >1 μM, and ≦3 nM is indicated by two stars (**))”; the “maximum fold (Fold) increase” value is “***** (a fold increase >1.65 is indicated by five stars (*****))”.

`Cc1cn2cc(-c3cc4ccc(N5CCC(N(C)C)CC5)cc4c(=O)o3)nc2c(C)n1` [Cpd 124, 7-[4-(dimethylamino)piperidin-1-yl]-3-(6,8-dimethylimidazo[1,2-a]pyrazin-2-yl)-1H-isochromen-1-one] gave a melting point of 274 to 276 °C. Also, in series [1], the EC (1.5-fold) was no more than 0.1 µM. In addition, in the series with Smn protein, the “EC1.5x for Smn protein expression” value was “**** (an EC1.5×≦0.3 nM is indicated by four stars (****))”; the “maximum fold (Fold) increase” value was “**** (a fold increase between >1.5 and ≦1.65 is indicated by four stars (****))”.

On to `C[C@H]1CN(c2ccc3cc(-c4ccc(O)c(O)c4)oc(=O)c3c2)CCN1` [Cpd 41, 3-(3,4-dihydroxyphenyl)-7-[(3S)-3-methylpiperazin-1-yl]-1H-isochromen-1-one], for which the melting point is 220 to 222 °C. Also, the EC (1.5-fold) in series [1] lay in the range of 0.3 to 1 µM. Besides, the “maximum fold (Fold) increase” value in the series on Smn protein was “*** (a fold increase between >1.35 and ≦1.5 is indicated by three stars (***))”.

Consider `Cn1cc2cc(-c3cc4ccc(N5CCNCC5)cc4c(=O)o3)ccc2n1` [Cpd 156, 3-(2-methyl-2H-indazol-5-yl)-7-(piperazin-1-yl)-1H-isochromen-1-one], for which the melting point was in the range of 268 to 270 °C. For the same compound, in series [1], the EC (1.5-fold) was no more than 0.1 µM. Moreover, in the series with Smn protein, the “EC1.5x for Smn protein expression” value is listed as “**** (an EC1.5×≦0.3 nM is indicated by four stars (****))” and the “maximum fold (Fold) increase” value was “***** (a fold increase >1.65 is indicated by five stars (*****))”.

As to `Cc1cn2cc(-c3cc4ccc(C5=CCN(C6CC6)CC5)cc4c(=O)o3)nc2c(C)n1` [Cpd 93, 7-(1-cyclopropyl-1,2,3,6-tetrahydropyridin-4-yl)-3-(6,8-dimethylimidazo[1,2-a]pyrazin-2-yl)-1H-isochromen-1-one], the melting point fell in the range of 230 to 232 °C. Also, the EC (1.5-fold) in series [1] is no more than 0.1 µM. Also, in the series on Smn protein, the “EC1.5x for Smn protein expression” value is “**** (an EC1.5×≦0.3 nM is indicated by four stars (****))” and the “maximum fold (Fold) increase” value is “***** (a fold increase >1.65 is indicated by five stars (*****))”.

Regarding `Cc1cn2cc(-c3cc4ccc(N5CCN(CCO)CC5)cc4c(=O)o3)nc2c(C)n1` [Cpd 75, 3-(6,8-dimethylimidazo[1,2-a]pyrazin-2-yl)-7-[4-(2-hydroxyethyl)piperazin-1-yl]-1H-isochromen-1-one], the melting point is 248 to 250 °C. In addition, in series [1], the EC (1.5-fold) is no more than 0.1 µM. For the same compound, in the series on Smn protein, the “EC1.5x for Smn protein expression” value is “*** (an EC1.5× between >0.3 nM and ≦1 nM is indicated by three stars (***))”; the “maximum fold (Fold) increase” value is on record as “***** (a fold increase >1.65 is indicated by five stars (*****))”.

In turn, `CCCN1[C@H](C)CN(c2ccc3cc(-c4cn5cc(C)nc(C)c5n4)oc(=O)c3c2)C[C@@H]1C` [Cpd 148, 3-(6,8-dimethylimidazo[1,2-a]pyrazin-2-yl)-7-[(3R,5S)-3,5-dimethyl-4-propylpiperazin-1-yl]-1H-isochromen-1-one] returned a melting point of 259 to 263 °C. Besides, the EC (1.5-fold) in series [1] was no more than 0.1 µM. Also, in the series with Smn protein, the “EC1.5x for Smn protein expression” value is “*** (an EC1.5× between >0.3 nM and ≦1 nM is indicated by three stars (***))”; the “maximum fold (Fold) increase” value is “**** (a fold increase between >1.5 and ≦1.65 is indicated by four stars (****))”.

`Cc1cn2cc(-c3cc4ccc(N5CCN(CCO)CC5)cc4c(=O)o3)cc2c(C)n1` [Cpd 79, 3-(1,3-dimethylpyrrolo[1,2-a]pyrazin-7-yl)-7-[4-(2-hydroxyethyl)piperazin-1-yl]-1H-isochromen-1-one] registered a melting point of 240 to 242 °C. Moreover, in series [1], the EC (1.5-fold) was no more than 0.1 µM. Further, in the series with Smn protein, the “EC1.5x for Smn protein expression” value is on record as “**** (an EC1.5×≦0.3 nM is indicated by four stars (****))”; the “maximum fold (Fold) increase” value is “**** (a fold increase between >1.5 and ≦1.65 is indicated by four stars (****))”.

Compound `CCN1CCN(c2ccc3cc(-c4cn5cc(C)nc(C)c5n4)oc(=O)c3c2)C[C@H]1C` [Cpd 140, 3-(6,8-dimethylimidazo[1,2-a]pyrazin-2-yl)-7-[(3R)-4-ethyl-3-methylpiperazin-1-yl]-1H-isochromen-1-one] returned a melting point of 243 to 246 °C. In addition, the EC (1.5-fold) in series [1] was no more than 0.1 µM. Besides, in the series with Smn protein, the “EC1.5x for Smn protein expression” value is listed as “**** (an EC1.5×≦0.3 nM is indicated by four stars (****))” and the “maximum fold (Fold) increase” value was “***** (a fold increase >1.65 is indicated by five stars (*****))”.

Regarding `Cc1nc(Cl)cn2cc(-c3cc4ccc(C5=CCNCC5)cc4c(=O)o3)nc12` [Cpd 113, 3-(6-chloro-8-methylimidazo[1,2-a]pyrazin-2-yl)-7-(1,2,3,6-tetrahydropyridin-4-yl)-1H-isochromen-1-one], the melting point lay within 269 to 273 °C. Also, the EC (1.5-fold) in series [1] is no more than 0.1 µM. Also, in the series on Smn protein, the “EC1.5x for Smn protein expression” value was “** (an EC1.5× between >1 μM, and ≦3 nM is indicated by two stars (**))”; the “maximum fold (Fold) increase” value is “**** (a fold increase between >1.5 and ≦1.65 is indicated by four stars (****))”.

Consider `COc1cccc(-c2cc3ccc(N4CCN(C)CC4)cc3c(=O)o2)c1` [Cpd 19, 3-(3-methoxyphenyl)-7-(4-methylpiperazin-1-yl)-1H-isochromen-1-one], for which the melting point lay in the range of 140 to 142 °C. Besides, the EC (1.5-fold) in series [1] fell in the range of 3 to 30 µM. Besides, in the series on Smn protein, the “maximum fold (Fold) increase” value is recorded as “* (A maximum fold increase of ≦1.2 is indicated by one star (*))”.

As to `Cc1nc2cc(-c3cc4ccc(N5CCNCC5)cc4c(=O)o3)ccc2s1` [Cpd 106, 3-(2-methyl-1,3-benzothiazol-5-yl)-7-(piperazin-1-yl)-1H-isochromen-1-one], the melting point was 229 to 235 °C. In addition, the EC (1.5-fold) in series [1] was 1 to 3 µM. Also, the “maximum fold (Fold) increase” value with Smn protein is “* (A maximum fold increase of ≦1.2 is indicated by one star (*))”.
